“And” between values parts separate entries of the source, which are not always exact repeats. Equal entries are not always repeated. Toxic doses and inconclusive results are not listed. Rule as the data show it: active = T/C of 150% or more; inactive = T/C below 125%.
Test system: L1210 leukemia ip in BDF1 mice, survival T/C
Experiment: NCI In Vivo Anticancer Drug Screen. Data for tumor model L1210 Leukemia (intraperitoneal) in B6D2F1 (BDF1) mice
Details: endpoint: mean survival time, higher = longer survival
Method in brief: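 Transplantable tumor model; survival measured in treated vs vehicle control mice. Value = treated/control.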

[1] = dose: 100.0 mg/kg/injection, schedule: Q04DX003 (ip), vehicle: Klucel (hydroxypropylcellulose) (HPC)
[2] = dose: 100.0 mg/kg/injection, schedule: Q01DX009 (ip), vehicle: Klucel (hydroxypropylcellulose) (HPC)
[3] = dose: 100.0 mg/kg/injection, schedule: Q04DX002 (ip), vehicle: Klucel (hydroxypropylcellulose) (HPC)
[4] = dose: 200.0 mg/kg/injection, schedule: Q01DX009 (ip), vehicle: Klucel (hydroxypropylcellulose) (HPC)
[5] = dose: 200.0 mg/kg/injection, schedule: Q04DX002 (ip), vehicle: Klucel (hydroxypropylcellulose) (HPC)
[6] = dose: 400.0 mg/kg/injection, schedule: Q01DX009 (ip), vehicle: Klucel (hydroxypropylcellulose) (HPC)
[7] = dose: 400.0 mg/kg/injection, schedule: Q04DX002 (ip), vehicle: Klucel (hydroxypropylcellulose) (HPC)
[8] = dose: 25.0 mg/kg/injection, schedule: Q01DX009 (ip), vehicle: saline with Tween-80
[9] = dose: 50.0 mg/kg/injection, schedule: Q01DX009 (ip), vehicle: saline with Tween-80
[10] = dose: 100.0 mg/kg/injection, schedule: Q04DX003 (ip), vehicle: saline with Tween-80
[11] = dose: 100.0 mg/kg/injection, schedule: Q01DX001 (ip), vehicle: carboxymethylcellulose (CMC)
[12] = dose: 200.0 mg/kg/injection, schedule: Q01DX001 (ip), vehicle: carboxymethylcellulose (CMC)
[13] = dose: 400.0 mg/kg/injection, schedule: Q01DX001 (ip), vehicle: carboxymethylcellulose (CMC)

Measured: T/C

CCN(CC)CCCC(C)Nc1ccnc(/C=C/c2ccc(Cl)cc2)c1 (stereo not given)
inactive: dose: 12.0 mg/kg/injection, schedule: Q01DX009 (ip), vehicle: Klucel (hydroxypropylcellulose) (HPC) 92 % of control | dose: 12.5 mg/kg/injection, schedule: Q04DX003 (ip), vehicle: Klucel (hydroxypropylcellulose) (HPC) 97 % of control | dose: 25.0 mg/kg/injection, schedule: Q01DX009 (ip), vehicle: Klucel (hydroxypropylcellulose) (HPC) 100 % of control | dose: 25.0 mg/kg/injection, schedule: Q01DX009 (ip), vehicle: saline 101 % of control | dose: 25.0 mg/kg/injection, schedule: Q04DX003 (ip), vehicle: Klucel (hydroxypropylcellulose) (HPC) 103 % of control | dose: 50.0 mg/kg/injection, schedule: Q01DX009 (ip), vehicle: Klucel (hydroxypropylcellulose) (HPC) 95 % of control | dose: 50.0 mg/kg/injection, schedule: Q01DX009 (ip), vehicle: saline 95 % of control | dose: 50.0 mg/kg/injection, schedule: Q04DX003 (ip), vehicle: Klucel (hydroxypropylcellulose) (HPC) 97 % of control | dose: 75.0 mg/kg/injection, schedule: Q04DX003 (ip), vehicle: saline 105 % of control | [1] 96 % of control | dose: 300.0 mg/kg/injection, schedule: Q04DX003 (ip), vehicle: saline 93 % of control

CN(C)CCCNC(=O)C1C(c2ccccc2)C1c1ccccc1 (stereo not given)
inactive: dose: 12.5 mg/kg/injection, schedule: Q04DX002 (ip), vehicle: saline with Tween-80 102 % of control | dose: 25.0 mg/kg/injection, schedule: Q04DX002 (ip), vehicle: saline with Tween-80 102 % of control | dose: 50.0 mg/kg/injection, schedule: Q04DX002 (ip), vehicle: saline with Tween-80 91 % of control

O=C(C[n+]1cc2ccccc2c2ccccc21)c1ccccc1
inactive: [2] 95 % of control

CC(C)(C)c1ccc(SC(=O)Nc2cccc(Cl)c2Cl)cc1
inactive: [2] 96 % of control | [3] 92 % of control | [4] 103 % of control | [5] 92 % of control | [6] 100 % of control | [7] 95 % of control

COc1ccc(O)c(/C=N\Nc2ccccc2)c1
inactive: [2] 89 % of control | [1] 96 % of control | [4] 91 % of control | dose: 200.0 mg/kg/injection, schedule: Q04DX003 (ip), vehicle: Klucel (hydroxypropylcellulose) (HPC) 94 % of control | [6] 86 % of control | dose: 400.0 mg/kg/injection, schedule: Q04DX003 (ip), vehicle: Klucel (hydroxypropylcellulose) (HPC) 92 % of control

N#CCC(C#N)N1CCOCC1 (stereo not given)
inactive: [8] 92 % of control | [9] 104 % of control | dose: 100.0 mg/kg/injection, schedule: Q01DX009 (ip), vehicle: saline with Tween-80 93 % of control | [10] 97 % of control

Nc1nc2c(ncn2C2OC(CO)C(O)C2O)c(=O)[nH]1 (stereo not given)
inactive: dose: 5.0 mg/kg/injection, schedule: Q01DX001 (ip), vehicle: saline 102 % of control | dose: 10.0 mg/kg/injection, schedule: Q01DX001 (ip), vehicle: saline 105 % of control | dose: 20.0 mg/kg/injection, schedule: Q01DX001 (ip), vehicle: saline 97 % of control | dose: 40.0 mg/kg/injection, schedule: Q01DX001 (ip), vehicle: saline 103 % of control | dose: 80.0 mg/kg/injection, schedule: Q01DX001 (ip), vehicle: saline 108 % of control | [11] 100 % of control | dose: 100.0 mg/kg/injection, schedule: Q01DX001 (ip), vehicle: saline 101 % of control and 105 % of control | [12] 97 % of control | dose: 200.0 mg/kg/injection, schedule: Q01DX001 (ip), vehicle: saline 101 % of control | [13] 97 % of control

CSc1ccc2c(c1)N(CCCN(C)C)c1ccccc1S2
inactive: dose: 0.78 mg/kg/injection, schedule: Q04DX003 (ip), vehicle: saline 98 % of control and 99 % of control | dose: 1.56 mg/kg/injection, schedule: Q04DX003 (ip), vehicle: saline 103 % of control and 107 % of control | dose: 3.12 mg/kg/injection, schedule: Q01DX009 (ip), vehicle: saline 103 % of control | dose: 3.12 mg/kg/injection, schedule: Q04DX003 (ip), vehicle: saline 98 % of control and 102 % of control | dose: 6.25 mg/kg/injection, schedule: Q01DX009 (ip), vehicle: saline 120 % of control | dose: 6.25 mg/kg/injection, schedule: Q04DX003 (ip), vehicle: saline 101 % of control and 107 % of control | dose: 12.5 mg/kg/injection, schedule: Q01DX009 (ip), vehicle: saline 122 % of control | dose: 12.5 mg/kg/injection, schedule: Q04DX003 (ip), vehicle: saline 104 % of control | dose: 25.0 mg/kg/injection, schedule: Q04DX003 (ip), vehicle: saline 109 % of control

COc1ccc(-c2ccc(OC)cc2[N+](=O)[O-])c([N+](=O)[O-])c1
inactive: [11] 100 % of control | [12] 100 % of control | [13] 102 % of control

CCOCCOCCOCCCNCC(=O)N1CCN(C(=O)CNCCCOCCOCCOCC)CC1
inactive: dose: 50.0 mg/kg/injection, schedule: Q01DX001 (ip), vehicle: carboxymethylcellulose (CMC) 92 % of control | [11] 101 % of control | [12] 103 % of control | [13] 92 % of control

CC1(C)C=CN(c2ccccc2)C(=O)O1
inactive: [3] 94 % of control | [5] 98 % of control | [7] 98 % of control

CN(C)CCOc1cccc(OCCN(C)C)n1
inactive: dose: 12.5 mg/kg/injection, schedule: Q01DX009 (ip), vehicle: saline with Tween-80 104 % of control | [8] 103 % of control | dose: 25.0 mg/kg/injection, schedule: Q04DX003 (ip), vehicle: saline with Tween-80 96 % of control | [9] 103 % of control | dose: 50.0 mg/kg/injection, schedule: Q04DX003 (ip), vehicle: saline with Tween-80 96 % of control | [10] 100 % of control

CCCCCCCCCCCCNC(=O)C[n+]1ccc(C(N)=O)cc1
inactive: dose: 100.0 mg/kg/injection, schedule: Q04DX003 (ip), vehicle: saline 94 % of control

O=Cc1c(Cl)n(C(=O)c2ccccc2)c2ccccc12
inactive: dose: 50.0 mg/kg/injection, schedule: Q04DX002 (ip), vehicle: Klucel (hydroxypropylcellulose) (HPC) 90 % of control | [3] 87 % of control | [5] 97 % of control

— PubChem BioAssay AID248 (DTP/NCI, 2004)
